Test results: US5914319A, “Antithrombotic agents” (Eli Lilly and Company, priority 1995, dated 1999)
Structures can show the parent of a compound that is named as a salt. Where two headings read alike, the source gives them in different places.

Assays:
[1] = test system: Human plasma; assay: Human plasma anticoagulation, prothrombin time (PT); type: biochemical; conditions: concentration required to double the PT, linear extrapolation
In short: (§1)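 Values are concentrations estimated by linear extrapolation to double the clotting time in human plasma containing test compound across a wide range. Thrombin time was triggered with bovine thrombin at 10 NIH units/mL plus saline, and prothrombin time with Thromboplastin-C plus saline. For APTT, plasma sat with Actin reagent for 120 seconds before 0.02M CaCl2.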

[2] = test system: Human plasma; assay: Human plasma anticoagulation, thrombin time (TT); type: biochemical; conditions: concentration required to double the thrombin time, linear extrapolation
In short: as §1

[3] = target: human thrombin (Homo sapiens, UniProt P00734); assay: Inhibition of the amidase activity of thrombin (Kass); type: biochemical
[4] = test system: Human plasma; assay: Human plasma anticoagulation, activated partial thromboplastin time (APTT); type: biochemical; conditions: concentration required to double the APTT, linear extrapolation
In short: as §1

[5] = Index of bioavailability (% Relative Activity from plasma TT time course); type: in vivo; conditions: dose-adjusted AUC of plasma TT time course, p.o. versus i.v. bolus
Experimental: Parke Davis) at 37° C. […] Assays are done in duplicate and averaged. […] Each sample population represented alternating sequential time points.

[6] = early clinical studies, Simoons et al., Circulation, 90, I-231 (1994); cited from earlier work
[7] = target: T1, Human plasmin (Homo sapiens, UniProt P00747); assay: Kass with fibrinolytic system proteases: plasmin; type: biochemical; conditions: substrate H-D-Val-Leu-Lys-p-nitroanilide
T1 construct: Human plasmin is purchased from Boehringer Mannheim; purchased Boehringer Mannheim, Indianapolis, Ind
T1 sequence (P00747 581-810 limits assumed): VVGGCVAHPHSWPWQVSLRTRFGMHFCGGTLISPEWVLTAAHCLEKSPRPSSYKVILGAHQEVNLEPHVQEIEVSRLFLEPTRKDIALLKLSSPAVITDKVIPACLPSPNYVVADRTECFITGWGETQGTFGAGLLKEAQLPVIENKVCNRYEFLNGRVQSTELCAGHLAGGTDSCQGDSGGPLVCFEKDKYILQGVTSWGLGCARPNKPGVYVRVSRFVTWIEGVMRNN
T1 sequence (P00747 97-580 partner limits assumed): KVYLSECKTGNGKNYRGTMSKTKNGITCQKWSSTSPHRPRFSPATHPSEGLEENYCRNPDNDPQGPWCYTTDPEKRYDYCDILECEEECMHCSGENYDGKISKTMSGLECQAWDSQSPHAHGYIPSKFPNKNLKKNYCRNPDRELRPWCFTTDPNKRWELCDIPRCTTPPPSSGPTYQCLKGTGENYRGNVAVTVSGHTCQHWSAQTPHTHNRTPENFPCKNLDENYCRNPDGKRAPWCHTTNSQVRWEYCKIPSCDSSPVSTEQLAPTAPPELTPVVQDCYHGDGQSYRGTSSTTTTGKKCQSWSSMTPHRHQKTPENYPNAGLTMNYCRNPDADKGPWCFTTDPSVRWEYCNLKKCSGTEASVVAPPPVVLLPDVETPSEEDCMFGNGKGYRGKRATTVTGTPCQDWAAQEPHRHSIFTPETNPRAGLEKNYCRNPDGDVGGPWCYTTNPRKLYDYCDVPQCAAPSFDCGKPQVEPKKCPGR
Experimental: (§2) By substantially following the procedures described above for human thrombin, and using other human blood coagulation system serine proteases and proteases of the fibrinolytic system with the appropriate chromogenic substrates, identified below, selectivity of the compounds of the present invention with respect to the coagulation factor serine proteases and with respect to the fibrinolytic system serine proteases are evaluated as well as their substantial lack of interference with serine proteases of the fibrinolytic system. […] This would be important to the therapeutic use of such agents as an adjunct to streptokinase, t-PA or urokinase thrombolytic therapy and to the use of such agents as an endogenous fibrinolysis-sparing (with respect to t-PA and urokinase) antithrombotic agent. In addition to the lack of interference with the amidase activity of the fibrinolytic proteases, such fibrinolytic system sparing can be studied by the use of human plasma clots and their lysis by the respective fibrinolytic plasminogen activators.

[8] = target: T2, Bovine trypsin (Bos taurus, UniProt P00760); assay: Kass with other serine proteases: trypsin; type: biochemical; conditions: substrate N-Benzoyl-Phe-Val-Arg-p-nitroanilide
T2 construct: Bovine trypsin is purchased from Worthington Biochemicals; purchased Worthington Biochemicals, Freehold, N.J
T2 sequence (P00760 24-246): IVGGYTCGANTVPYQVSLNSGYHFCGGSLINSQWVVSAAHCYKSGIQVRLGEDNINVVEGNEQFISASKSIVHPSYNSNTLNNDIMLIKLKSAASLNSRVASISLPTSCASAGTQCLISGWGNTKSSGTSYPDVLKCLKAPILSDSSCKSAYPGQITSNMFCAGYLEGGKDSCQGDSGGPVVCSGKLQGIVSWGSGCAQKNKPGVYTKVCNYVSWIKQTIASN
From the text: (§3) Chromogenic substrates: N-Benzoyl-Ile-Glu-Gly-Arg-p-nitroanilide (for factor Xa); N-Cbz-D-Arg-Gly-Arg-p-nitroanilide (for factor IXa assay as the factor Xa substrate); Pyroglutamyl-Pro-Arg-p-nitroanilide (for Factor XIa and for aPC); H-D-Pro-Phe-Arg-p-nitroanilide (for factor XIIa); and Pyroglutamyl-Gly-Arg-p-nitroanilide (for urokinase); are purchased from KabiVitrum, Stockholm, Sweden, or from Midwest Biotech, Fishers, Ind. Bovine trypsin is purchased from Worthington Biochemicals, Freehold, N.J., and human plasma kallikrein from Kabi Vitrum, Stockholm, Sweden. Chromogenic substrate H-D-Pro-Phe-Arg-p-nitroanilide for plasma kallikrein is purchased from Kabi Vitrum, Stockholm, Sweden. […]

[9] = target: T3, tissue plasminogen activator (t-PA) (Homo sapiens, UniProt P00750); assay: Kass with fibrinolytic system proteases: t-PA; type: biochemical; conditions: substrate H-D-Ile-Pro-Arg-p-nitroanilide
T3 construct: purchased American Diagnostica, Greenwich, Conn
T3 sequence (P00750 36-562): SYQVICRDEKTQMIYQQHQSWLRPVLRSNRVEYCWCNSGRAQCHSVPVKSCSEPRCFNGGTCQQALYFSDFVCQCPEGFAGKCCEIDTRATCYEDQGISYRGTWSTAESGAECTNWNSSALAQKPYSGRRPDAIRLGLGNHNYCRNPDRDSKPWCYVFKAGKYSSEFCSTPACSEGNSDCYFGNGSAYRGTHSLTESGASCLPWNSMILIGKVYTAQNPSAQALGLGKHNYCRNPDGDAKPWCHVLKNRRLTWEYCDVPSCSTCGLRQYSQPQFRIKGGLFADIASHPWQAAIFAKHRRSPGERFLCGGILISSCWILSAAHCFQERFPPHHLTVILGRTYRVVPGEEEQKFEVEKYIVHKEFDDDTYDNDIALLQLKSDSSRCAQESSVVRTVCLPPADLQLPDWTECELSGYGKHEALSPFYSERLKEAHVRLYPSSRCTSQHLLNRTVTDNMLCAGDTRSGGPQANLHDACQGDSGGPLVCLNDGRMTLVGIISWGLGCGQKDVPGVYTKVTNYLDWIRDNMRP
Experimental: as §2

[10] = target: T4, factor Xa (Homo sapiens, UniProt P00742); assay: Kass with other serine proteases: factor Xa; type: biochemical; conditions: substrate N-Benzoyl-Ile-Glu-Gly-Arg-p-nitroanilide
T4 construct: Human factors X, Xa, IXa, XIa, and XIIa are purchased; purchased Enzyme Research Laboratories, South Bend, Ind
T4 sequence (P00742 235-488 limits assumed): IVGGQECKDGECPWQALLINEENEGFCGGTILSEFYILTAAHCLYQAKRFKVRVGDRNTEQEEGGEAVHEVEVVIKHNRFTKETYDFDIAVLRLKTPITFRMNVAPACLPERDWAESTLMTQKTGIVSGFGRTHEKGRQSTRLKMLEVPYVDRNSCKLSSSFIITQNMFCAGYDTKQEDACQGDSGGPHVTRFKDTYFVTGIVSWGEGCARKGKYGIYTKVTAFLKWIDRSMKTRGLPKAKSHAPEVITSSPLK
T4 sequence (P00742 41-179 partner limits assumed): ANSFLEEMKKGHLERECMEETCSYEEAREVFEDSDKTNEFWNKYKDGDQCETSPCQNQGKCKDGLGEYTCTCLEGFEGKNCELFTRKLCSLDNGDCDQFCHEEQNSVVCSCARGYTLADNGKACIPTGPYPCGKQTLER
From the text: as §3

[11] = mean over a range of test compound concentrations, […]

Compound	Human Plasma Anticoagulation 2× Clotting time (ng/mL) PT [1]	Human Plasma Anticoagulation 2× Clotting time (ng/mL) TT [2]	Kass × 10^6 (L/mole) Human Thrombin [3, 11]	Human Plasma Anticoagulation 2× Clotting time (ng/mL) APTT [4]	further results
Nc1ccc(CNC(=O)[C@@H]2CCCN2C(=O)[C@@H](CC2CCCCC2)NCC(=O)O)c(F)c1 [Example 64, HO2 CCH2 -D-Cha-Pro-4-NHCH2 -3-F-C6 H3 NH2.HCl]	650 ng/mL	23 ng/mL	15 × 10^6 L/mole	900 ng/mL	
Cl.Cl.Cl.N=C(N)NCCCCNC(=O)[C@@H]1CCCN1C(=O)[C@@H]1NCC[C@H]2CCCC[C@H]21 [Example 61, (4aR,8aR)-Perhydoisoquinoline-1(R)-carbonyl-Pro-Agm.3HCl]	756 ng/mL	45 ng/mL	63 × 10^6 L/mole	679 ng/mL	
CCS(=O)(=O)N[C@H](Cc1ccccc1)C(=O)N1CCC[C@H]1C(=O)NCCCCN=C(N)N.Cl [Example 1, EtSO2 -D-Phe-Pro-Agm.HCl]		250 ng/mL			% oral/i.v. activity (Rat) [5]: 8%
N=C(N)c1ccc(CNC(=O)[C@@H]2CCCN2C(=O)[C@@H](CCc2ccccc2)NCC(=O)O)cc1 [Example 87, HOOCCH2 -D-hPhe-Pro-p-NHCH2 C6 H4 C(NH)NH2.HCl]	310 ng/mL	9 ng/mL	30 × 10^6 L/mole	260 ng/mL	
CCS(=O)(=O)N[C@H](CC1CCCCC1)C(=O)N1CCC[C@H]1C(=O)NCc1ccc(C(=N)N)cc1F.Cl [Example 93, EtSO2 -D-Cha-Pro-4-NHCH2 -3-F-benzamidine.HCl]	140 ng/mL	5.9 ng/mL	970 × 10^6 L/mole	35 ng/mL	
Cl.Cl.N=C(N)c1ccc(CNC(=O)CN(CCc2ccccc2)C(=O)[C@H]2CCCCN2)cc1 [Example 21, D-hPro-N(PhCH2CH2)Gly-p-NHCH2 C6 H4 C(NH)NH2.2HCl]	1,000 ng/mL	160 ng/mL	3.6 × 10^6 L/mole	2,000 ng/mL	
N=C(N)c1ccc(CNC(=O)[C@@H]2C[C@@H]3CCCC[C@@H]3N2C(=O)[C@H]2CCCCN2)cc1 [Example 20, D-hPro-Ohi-p-NHCH2 C6 H4 C(NH)NH2.3HCl]	600 ng/mL	62 ng/mL	10 × 10^6 L/mole	550 ng/mL	
Cl.Cl.N=C(N)c1ccc(CNC(=O)C2CC3CCCCC3N2C(=O)C2NCCC3CCCCC32)cc1 [Example 42, D-1-Piq-cis-Ohi-p-NHCH2 C6 H4 C(NH)NH2.2HCl]	320 ng/mL	20 ng/mL	38. × 10^6 L/mole	270 ng/mL	
EtSO2 -Phg-cis-Ohi-p-NHCH2 C6 H4 C(NH)NH2.HCl [Example 44]	170 ng/mL	4. ng/mL		100 ng/mL	Kass × 10^6 (L/mole) Human Thrombin [3]: 630
CN[C@H](Cc1ccccc1)C(=O)N1CCC[C@H]1C(=O)N[C@H](C=O)CCCNC(=N)N.O=S(=O)(O)O [D-MePhe-Pro-Arg-H sulfate]					anticoagulant in man [6]: anticoagulant in man
EtSO2 -D-Phe-Pro-p-NHCH2 --C6 H4 C(=NH)NH2.HCl [Example 23]	120 ng/mL	7 ng/mL	770 × 10^6 L/mole	86 ng/mL	
N=C(N)c1ccc(CNC(=O)[C@@H]2CCCN2C(=O)[C@@H](CC2CCCCC2)NCC(=O)O)cc1 [Example 48, HOOCCH2 -D-Cha-Pro-p-NHCH2 C6 H4 C(NH)NH2.HCl]	59 ng/mL	2. ng/mL	4,100 × 10^6 L/mole	33 ng/mL	Kass × 10^6 (L/mole) Plasmin [7]: 0.43 × 10^6 L/mole; Kass × 10^6 (L/mole) Trypsin [8]: 250. × 10^6 L/mole; Kass × 10^6 (L/mole) t-PA [9]: 0.05 × 10^6 L/mole; Kass × 10^6 (L/mole) Xa [10]: 5.5 × 10^6 L/mole
NMI-D-Phe-Pro-Agm.HCl [Example 4]		230 ng/mL	13. × 10^6 L/mole		
CCS(=O)(=O)N[C@H](CC1CCCCC1)C(=O)N1CCC[C@H]1C(=O)NCc1ccc(N)cc1F [Example 82, EtSO2 -D-Cha-Pro-4-NHCH2 -3-F-C6 H3 NH2.HCl]	3,000 ng/mL	130 ng/mL	5.0 × 10^6 L/mole	3,800 ng/mL	
Cl.N=C(N)c1ccc(CNC(=O)[C@@H]2CCCN2C(=O)[C@@H](CC2CCCCC2)NCCC(=O)O)cc1 [Example 52, HOOCCH2 CH2 -D-Cha-Pro-p-NHCH2 C6 H4 C(NH)NH2.HCl]	170 ng/mL	6 ng/mL		80 ng/mL	
CCS(=O)(=O)N[C@H](Cc1ccccc1)C(=O)N1CCC[C@H]1C(=O)NCCc1cccc(C(=N)N)c1.Cl [Example 27, EtSO2 -D-Phe-Pro-m-NHCH2 CH2 --C6 H4 C(=NH)NH2.HCl]	27,000 ng/mL	1,940 ng/mL		27,800 ng/mL	
